Laboratory results: US20160097044A1, “Antimicrobial Enzyme Fusions Reduce Resistance and Kill Intracellular Staphylococcus aureus” (The United States of America, as Represented by the …, priority 2014, published 2016)

Assays:
S. aureus Newbould 305 [1] = assay: Murine model of mastitis, bacterial load; assay type: in vivo, C57BL6/SJL mice; conditions: for bacterial load / clearance of mammary glands (in words): single 1.25 nmoles intramammary infusion 30 minutes post infection, 18 h
Protocol: (§1) FIG. 6a depicts the specific activity of peptidoglycan hydrolase fusion constructs in vitro in a turbidity reduction assay with S. aureus Newbould 305 resuspended in lysis buffer to an OD600nm of 1.0 and treated with 1 μM final concentrations of each peptidoglycan hydrolase. The maximum specific activity for three experiments are represented as an average with SEM error bars. FIG. 6b depicts the bacterial burden in mice with mastitis treated with recombinant peptidoglycan hydrolases. Colony Forming Units (CFUs) from infected murine mammary glands following a single treatment with 50 μl of 25 μM peptidoglycan hydrolase (1.25 nmol). Each data point represents the average of duplicate bacterial platings. The horizontal bars represent the average CFU/mg for each group. FIG. 6c illustrates the TNFα response in mice with mastitis that were treated with peptidoglycan hydrolases. Data represents a minimum of 7 measurements in duplicate. Log TNFα was used for statistical analysis. Single asterisks indicate a significant difference from buffer control (p<0.05); double asterisks indicate a significant difference from the parental enzyme (p<0.05).
To evaluate the efficacy of purified, individually administered peptidoglycan hydrolases in a murine model of bovine mastitis, female C57BL6/SJL mice were challenged by the intramammary route with 100 CFU S. aureus Newbould 305 in 50 μl buffer. A single 1.25 nmoles intramammary infusion of each desired peptidoglycan hydrolase (50 μl of a 25 μM solution) or 50 μl PBS was given 30 minutes post infection [with up to six glands treated per animal, each gland receiving a unique treatment] as described earlier (Schmelcher et al. 2012. Appl. Environ. Microbiol. 78:2297-2305; Kerr et al. 2001. Nat. Biotechnol. 19:66-70). Dams were euthanized 18 h post infusion, the mammary glands were aseptically dissected, and portions of the gland were used for determination of bacterial load and TNFα concentrations, as described previously (Schmelcher et al., supra).
Statistical analysis: The variables were analyzed as two-factor mixed models with Treatment as the factor and Mouse as random Blocks. This model […] within mouse correlations. Log(TNFα) was used. The variance grouping technique was used for log CFU and log TNFα to correct for variance heterogeneity. Means comparisons were done with Sidak adjusted p-values so that the experiment-wise error was 0.05. Log(TNFα) is back-transformed to the original units for graphing.

S. aureus = assay: Murine model of staphylococcal osteomyelitis (femur); assay type: in vivo, C57BL/6J mice; conditions: 5 mg/kg i.m. at site of infection, twice in 24 h, N=6
Protocol: Neonatal mouse whole calvaria were treated for 4 hours with chimeric peptidoglycan hydrolases or buffer alone, 24 hours post inoculation with GFP-expressing S. aureus. Calvaria were embedded in freeze media, sectioned, and subjected to fluorescence imaging. The image shown is a representative figure for triplicate sections of three separate calvaria. FIG. 8b depicts fluorescence intensity from these sections measured in ImageJ and defined as arbitrary fluorescence standardized to the untreated control. Error bars represent SEM of four replicate experiments. FIG. 8c depicts ex-vivo intracellular S. aureus eradication. Infected calvaria were homogenized and CFU were counted post treatment. Error bars represent SEM. FIG. 8d depicts a murine model of staphylococcal osteomyelitis. C57BL/6J mice were anesthetized and their femurs were surgically exposed. […] The femurs were removed, homogenized, and plated to quantify the bacterial load. […] Asterisks represent statistical significance as determined by one-way ANOVA followed by Tukey's posthoc test.
We utilized a previously described (Marriott, supra) murine model of staphylococcal osteomyelitis that reproduces the clinical and gross pathological phases of inflammatory bone diseases, such as human post-traumatic osteomyelitis. […] Asterisks represent statistical significance as determined by one-way ANOVA followed by Tukey's posthoc test.

S. aureus Newbould 305 [2] = assay: Turbidity reduction assay; assay type: cell-based; conditions: 1 μM enzyme, cells at OD600nm 1.0, FIG. 6a
Protocol: as §1
FIG. 7 depicts a turbidity reduction assay of select peptidoglycan hydrolases against S. aureus Newbould 305. Bacterial cells were resuspended in lysis buffer to an OD600nm of 1.0 and lysed with 1 μM final concentrations of each peptidoglycan hydrolase. The maximum rate of ΔOD of three experiments are represented as an average with error bars representing SEM. Double asterisks indicate significant difference from parental. Mean comparisons were performed with one way ANOVA (P=3.3×10^−5) with t test post hoc analysis with Sidák adjusted alpha (p<0.01).

[3] = system: intracellular S. aureus strain UAMS-1 in murine calvaria; assay: Ex vivo neonatal mouse calvaria intracellular eradication; assay type: cell-based
Protocol: Neonatal mouse whole calvaria were treated for 4 hours with chimeric peptidoglycan hydrolases or buffer alone, 24 hours post inoculation with GFP-expressing S. aureus. Calvaria were embedded in freeze media, sectioned, and subjected to fluorescence imaging. The image shown is a representative figure for triplicate sections of three separate calvaria. FIG. 8b depicts fluorescence intensity from these sections measured in ImageJ and defined as arbitrary fluorescence standardized to the untreated control. Error bars represent SEM of four replicate experiments. FIG. 8c depicts ex-vivo intracellular S. aureus eradication. Infected calvaria were homogenized and CFU were counted post treatment. Error bars represent SEM. FIG. 8d depicts a murine model of staphylococcal osteomyelitis. C57BL/6J mice were anesthetized and their femurs were surgically exposed. A trough was drilled through the bone cortex and the damaged bone sites were inoculated with 1×10^3 CFU S. aureus in agarose beads. After 24 hours, mice were treated (i.m. to site of infection) twice in a 24 h period with PBS or 5 mg/kg of triple fusion K-L or K-L-PTD1. The femurs were removed, homogenized, and plated to quantify the bacterial load. Bars indicate the average CFU recovered (N=6). […] Asterisks represent statistical significance as determined by one-way ANOVA followed by Tukey's posthoc test.
To examine the intracellular uptake and eradication in murine osteoblast-containing tissue samples, both ex vivo calvaria (skull cap), and in vivo femur injury models were tested. Calvaria were isolated from neonatal mice and infected with UAMS-1 strain of S. aureus (1×10^6 bacteria/calvaria) for 2 h at 37° C. in osteoblast growth medium in the absence of antibiotics. Following 3× washes with PBS, calvaria were exposed to 50 μg/ml of gentamicin for 15 min to kill extracellular bacteria and further cultured in gentamicin containing osteoblast growth media. After 24 h later, calvaria were treated with peptidoglycan hydrolases (5 μg/ml) or gentamicin only control for 2 h. Lysis buffer containing 0.05% trypsin and 0.25% Triton X-100 was used to homogenize the calvaria, the homogenates were quantitatively plated on LB agar plates, and the CFU were enumerated after 24 h. The data represents triplicate determinants of two separate experiments.
Calvaria were isolated, and infected as described above using GFP-tagged UAMS-1 strain of S. aureus. Two hours post-infection, calvaria were washed with PBS followed by a 15 minutes treatment with 50 μg/ml gentamicin to kill extracellular bacteria. 24 hours post-infection, calvaria were treated with 5 μg/ml peptidoglycan hydrolases or gentamicin only control for two hours and embedded in Tissue-Tek O.C.T compound (Sakura, Torrance, Calif.). […]

[4] = system: intracellular S. aureus Newbould 305 in bovine mammary epithelial cell line (MAC-T); assay: Intracellular S. aureus eradication assay in MAC-T cells; assay type: cell-based; conditions: 25 μg in 1 ml DMEM, 2.5 h
Text: (§2) FIGS. 5a-5e depict peptidoglycan hydrolase-protein transduction domain (PGH-PTD) eradication of intracellular S. aureus in cultured cells. Cultured cells were infected, treated with gentamicin to kill extracellular S. aureus, and then treated with the peptidoglycan hydrolases indicated. All results are standardized to the gentamicin (GENT) only control. Nomenclature of the peptidoglycan hydrolase constructs is as in FIG. 1. Asterisks indicate statistical significance detected with single factor ANOVA (α=0.05) with paired t-test posthoc analyses α=0.05 adjusted with Sidák correction for multiple comparisons (for all cases p<0.01). […] Error bars represent SEM. […] Yellow staining in the combined panel represents intracellular co-localization (in a single plane as determined by z-stack analysis) of both S. aureus and K-L-PTD1 (blue arrow). […]
(§3) Three similar intracellular S. aureus eradication assays from three different labs were optimized for (A) a cultured bovine mammary epithelial cell line (MAC-T, Nexia Biotechnologies, Quebec, Canada; Almeida, supra), (B) primary C57BL/6 mouse-derived osteoblasts (mOBs) (McCall et al. 2008. J. Bone Miner. Res. 23: 30-40) or (C) human brain microvascular endothelial cells (hBMEC; Stins, supra). […] The cell lysate was subjected to serial dilution plating, and the resultant CFUs were counted and normalized to the gentamicin control for each assay. […]

[5] = system: intracellular S. aureus strain ISP479C in human brain microvascular endothelial cells (hBMEC); assay: Intracellular S. aureus eradication assay in hBMEC; assay type: cell-based; conditions: 5 μg/ml, 1 h
Text: as §2, §3

TNFα = assay: Murine model of mastitis, TNFα response; assay type: in vivo, C57BL6/SJL mice; conditions: mice with mastitis
Protocol: as §1, with “(p<0.05). […]” for “(p<0.05).”
Statistical analysis: The variables were analyzed as two-factor mixed models with Treatment as the factor and Mouse as random Blocks. […]

Substance	greater CFU reduction than triple fusion K-L in the mastitis model (S. aureus Newbould 305 [1]; in vivo, compared with triple fusion K-L)	bacterial load / clearance of mammary glands (in words) (S. aureus Newbould 305 [1])	bacterial load in femur compared to no treatment (S. aureus)	turbidity reduction (in vitro lytic) activity (S. aureus Newbould 305 [2])	live bacteria (CFU) recovered from calvaria ([3]; 5 μg/ml for 2 h, homogenized calvaria)	elimination of GFP-labeled intracellular S. aureus (fluorescence) ([3]; 5 μg/ml, 24 hours post-infection, sectioned calvaria)	intracellular S. aureus CFUs relative to gentamicin only control [4]	intracellular S. aureus CFUs relative to gentamicin only control [5]	TNFα response (in words) (TNFα)
K-L-PTD1: triple fusion K-L with C-terminal PTD 1 (Antp 43-58); SEQ ID NO:53, protein SEQ ID NO:54	~3 orders of magnitude	clearance of the mammary gland to a level equivalent to that of lysostaphin alone or L-PTD1	significantly reduced bacterial load as compared to no treatment	reduced the in vitro activity	able to reduce the number of live bacteria recovered from sectioned calvaria	able to eliminate GFP-labeled intracellular S. aureus strain UAMS-1 from murine calvaria			
1-Sigma: commercial lysostaphin (Sigma-Aldrich, St. Louis, Mo.)							Neither commercial lysostaphin (1-Sigma; Sigma-Aldrich, St. Louis, Mo.) nor the C-terminal His6-tagged lysostaphin (construct 1) were able to decrease the intracellular CFUs	Neither commercial lysostaphin (1-Sigma; Sigma-Aldrich, St. Louis, Mo.) nor the C-terminal His6-tagged lysostaphin (construct 1) were able to decrease the intracellular CFUs	
L-PTD1: lysostaphin-His6 with C-terminal PTD 1 (Antp 43-58); SEQ ID NO:9		further decreased the mean bacterial load		reduced the in vitro activity					further decreased the mean bacterial load and TNFα concentration
